Experimental data: ChEMBL document CHEMBL3871287, “Discovery of SMP-304, a novel benzylpiperidine derivative with serotonin transporter inhibitory activity and 5-HT1A weak partial agonistic activity showing the antidepressant-like effect” (Bioorg Med Chem, 2017)
Active and inactive are the calls of the source. The calls are words filed in the database; no cut-off is given here.

Key:
[1] = biological target: T1, Sodium-dependent serotonin transporter (Homo sapiens, UniProt P31645); assay: Inhibition of human SERT expressed in CHO cell membranes assessed as reduction in [3H]serotonin uptake preincubated for 10 mins followed by [3H]serotonin addition measured after 20 mins by liquid scintillation counting method; assay type: cell-based
T1 sequence (P31645 whole entry): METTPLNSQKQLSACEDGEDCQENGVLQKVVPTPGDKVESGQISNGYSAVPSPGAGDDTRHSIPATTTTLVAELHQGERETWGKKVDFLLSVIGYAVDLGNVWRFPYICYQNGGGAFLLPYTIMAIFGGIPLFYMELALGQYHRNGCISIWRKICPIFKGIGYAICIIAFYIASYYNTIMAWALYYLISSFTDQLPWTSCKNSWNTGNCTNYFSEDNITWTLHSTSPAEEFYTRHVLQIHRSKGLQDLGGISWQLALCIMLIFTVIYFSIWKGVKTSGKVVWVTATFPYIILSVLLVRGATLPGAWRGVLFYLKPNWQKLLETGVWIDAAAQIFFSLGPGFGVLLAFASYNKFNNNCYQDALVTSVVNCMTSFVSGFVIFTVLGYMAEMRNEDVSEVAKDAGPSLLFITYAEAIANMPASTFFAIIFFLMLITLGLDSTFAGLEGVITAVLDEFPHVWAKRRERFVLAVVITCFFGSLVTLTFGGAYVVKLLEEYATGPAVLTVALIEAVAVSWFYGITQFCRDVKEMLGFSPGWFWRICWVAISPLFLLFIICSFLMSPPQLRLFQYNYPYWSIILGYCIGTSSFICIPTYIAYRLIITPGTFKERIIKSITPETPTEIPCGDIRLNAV

[2] = biological target: T2, 5-hydroxytryptamine receptor 1A (Homo sapiens, UniProt P08908); assay: Displacement of [3H]-8-OH-DPAT from human 5-HT1A receptor expressed in CHOK1 cells after 30 mins by liquid scintillation counting analysis; assay type: cell-based, CHO-K1
T2 sequence (P08908 whole entry): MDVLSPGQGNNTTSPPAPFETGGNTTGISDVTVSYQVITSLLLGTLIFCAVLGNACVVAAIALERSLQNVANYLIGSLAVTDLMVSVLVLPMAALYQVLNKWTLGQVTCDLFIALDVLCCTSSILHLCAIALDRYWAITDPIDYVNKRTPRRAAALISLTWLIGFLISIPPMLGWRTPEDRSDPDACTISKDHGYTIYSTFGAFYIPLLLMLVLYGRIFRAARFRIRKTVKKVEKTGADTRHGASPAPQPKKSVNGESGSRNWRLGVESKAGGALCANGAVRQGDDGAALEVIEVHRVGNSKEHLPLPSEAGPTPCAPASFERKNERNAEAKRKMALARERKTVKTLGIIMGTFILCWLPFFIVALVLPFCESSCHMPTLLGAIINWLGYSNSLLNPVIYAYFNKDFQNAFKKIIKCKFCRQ

Cytochrome P450 2D6 = Cytochrome P450 2D6 (Homo sapiens, UniProt P10635); assay: Inhibition of CYP2D6 in human liver microsomes assessed as reduction in formation of 1'-hydroxy-bufuralol from bufuralol preincubated with enzyme followed by substrate and beta-NADPH addition measured after 10 mins by LC-MS/MS analysis; assay type: ADME
Chain of Cytochrome P450 2D6 (P10635 whole entry): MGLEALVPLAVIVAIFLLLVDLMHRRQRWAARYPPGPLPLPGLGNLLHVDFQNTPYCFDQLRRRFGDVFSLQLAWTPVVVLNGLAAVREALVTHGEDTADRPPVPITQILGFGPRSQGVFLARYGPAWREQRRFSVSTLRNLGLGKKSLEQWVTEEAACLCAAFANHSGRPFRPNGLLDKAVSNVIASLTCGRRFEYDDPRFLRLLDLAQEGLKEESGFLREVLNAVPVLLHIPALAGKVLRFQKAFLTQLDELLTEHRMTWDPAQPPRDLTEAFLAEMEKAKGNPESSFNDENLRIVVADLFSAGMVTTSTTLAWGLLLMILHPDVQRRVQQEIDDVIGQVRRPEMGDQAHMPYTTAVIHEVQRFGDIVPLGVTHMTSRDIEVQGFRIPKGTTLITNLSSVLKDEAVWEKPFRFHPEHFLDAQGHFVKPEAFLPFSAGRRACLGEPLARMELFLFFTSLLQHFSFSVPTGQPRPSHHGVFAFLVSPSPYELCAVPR

HEK293 = assay: Selectivity ratio of Ki for human SERT expressed in HEK293 cell membranes to Ki for human 5-HT1A expressed in CHO-K1 cell membranes; assay type: cell-based
[3] = biological target: T1, Sodium-dependent serotonin transporter; assay: Displacement of [3H]citalopram from human SERT expressed in HEK293 cell membranes after 1 hr by liquid scintillation counting method; assay type: cell-based
Rattus norvegicus [4] = assay: Toxicity in Wistar rat assessed as increase in spontaneous locomotor activity at 3 and 10 mg/kg, po administered 26 and 2 hrs prior to testing measured for 30 mins; assay type: organism-based; conditions: in vivo, 0.5 h
[5] = Antidepressant-like activity in Wistar rat assessed as decrease in immobility time at 1 and 3 mg/kg, po administered 30 mins post start of training session for 2 days measured 2 hrs post last dose by forced swimming test; assay type: functional, organism-based
Rattus norvegicus [6] = assay: Toxicity in Wistar rat assessed as increase in spontaneous locomotor activity at 1 and 3 mg/kg, po administered 26 and 2 hrs prior to testing measured for 30 mins; assay type: organism-based; conditions: in vivo
[7] = Drug uptake in Wistar rat brain at 1 mg/kg, po administered 26 and 2 hrs prior to testing by HPLC/MS analysis; assay type: ADME, organism-based; conditions: in vivo
[8] = Drug uptake in Wistar rat brain at 3 mg/kg, po administered 26 and 2 hrs prior to testing by HPLC/MS analysis; assay type: ADME, organism-based; conditions: in vivo

Row | Ki [1] [µM] | Ki [2] [µM] | SMILES | also measured
1 | 0.0187 | 0.0234 | CCOc1ccc(Br)c(CC2CCN(CCc3cc4c(cc3Cl)OCCO4)CC2)c1 | IC50 (Cytochrome P450 2D6): 1.4 µM
2 | 0.0375 | 0.00082 | COc1cccc(CCN2CCC(Cc3cc(OC)ccc3Br)CC2)c1 | –
3 | 0.028 | 0.00196 | COc1ccc(Br)c(CC2CCN(CCc3cc(OC)c(OC)cc3Cl)CC2)c1 | –
4 | 0.0426 | 0.00293 | COc1ccc(Br)c(CC2CCN(CCc3cccc(Cl)c3)CC2)c1 | –
5 | 0.0269 | 0.00156 | COc1ccc(Br)c(CC2CCN(CCc3ccc(OC)c(OC)c3)CC2)c1 | –
6 | 0.0389 | 0.00481 | COc1ccc(Br)c(CC2CCN(CCc3cccc4ccccc34)CC2)c1 | –
7 | 0.0256 | 0.00089 | COc1ccc(Br)c(CC2CCN(CCc3ccc4ccccc4c3)CC2)c1 | –
8 | – | – | COc1ccc(F)c(CC2CCN(C3CCN(c4ccc(OC)c(OC)c4)CC3)CC2)c1 | Ki [3]: < 0.1 µM
9 | 0.0462 | 0.00134 | COc1ccc(Br)c(CC2CCN(CCc3ccc(Cl)cc3)CC2)c1 | –
10 | 0.0305 | 0.00112 | COc1ccc(CCN2CCC(Cc3cc(OC)ccc3Br)CC2)c(Cl)c1 | –
11 | 0.0124 | 0.00646 | COc1ccc(Br)c(CC2CCN(CCc3cc4c(cc3Cl)OCCO4)CC2)c1 | Ratio Ki (HEK293): < 2; IC50 (Cytochrome P450 2D6): < 0.4 µM
12 | 0.0512 | 0.00104 | COc1ccc(Br)c(CC2CCN(CCc3ccc(F)cc3)CC2)c1 | –
13 | – | – | Fc1ccc([C@@H]2CCNC[C@H]2COc2ccc3c(c2)OCO3)cc1 [PAROXETINE] | Activity (Rattus norvegicus [4]): Non-Toxic
14 | 0.0376 | 0.00303 | COc1ccc(Br)c(CC2CCN(CCc3ccccc3OC)CC2)c1 | –
15 | 0.014 | 0.00036 | COc1ccc(Br)c(CC2CCN(CCc3ccc4c(c3)OCCO4)CC2)c1 | –
16 | 0.0189 | 0.00104 | COc1ccc(Br)c(CC2CCN(CCc3ccc(OC)c(Cl)c3)CC2)c1 | –
17 | 0.0653 | 0.0014 | COc1ccc(Br)c(CC2CCN(CCc3ccc(C)cc3)CC2)c1 | –
18 | 0.0624 | 0.00408 | COc1ccc(Br)c(CC2CCN(CCc3ccccc3Cl)CC2)c1 | –
19 | 0.0139 | 0.0159 | CC(C)Oc1ccc(Br)c(CC2CCN(CCc3cc4c(cc3Cl)OCCO4)CC2)c1 | IC50 (Cytochrome P450 2D6): 1.5 µM
20 | 0.0375 | 0.00081 | COc1ccc(CCN2CCC(Cc3cc(OC)ccc3Br)CC2)cc1 | –
21 | – | – | COc1ccc(Br)c(CC2CCN(C3CCN(c4ccc(OC)c(OC)c4)CC3)CC2)c1 | IC50 [2]: < 0.01 µM
22 | 0.0256 | 0.00212 | COc1ccc(Br)c(CC2CCN(CCc3cccc4c3OCCO4)CC2)c1 | –

Row | SMILES | Ki [1] [µM] | Ki [2] [µM] | also measured
23 | COc1ccc(Br)c(CC2CCN(CCc3ccccc3)CC2)c1 | 0.0664 | 0.00272 | Ratio Ki (HEK293): > 20; Ki [3]: 0.0664 µM
24 | COc1ccc(Cl)c(CC2CCN(CCc3ccccc3)CC2)c1 | – | 0.00227 | Ki [3]: 0.102 µM
25 | COCCOc1ccc(Br)c(CC2CCN(CCc3cc4c(cc3Cl)OCCO4)CC2)c1.Cl | 0.0327 | – | IC50 [1]: 0.306 µM; IC50 (Cytochrome P450 2D6): 3 µM; Activity [5]: Active; Activity (Rattus norvegicus [6]): Non-Toxic; Drug uptake [7]: 6.74 nmol/kg; Drug uptake [8]: 30.3 nmol/kg
26 | COc1cccc(CC2CCN(CCc3ccccc3)CC2)c1 | – | 0.0293 | Ki [3]: 0.212 µM
27 | COc1ccc(F)c(CC2CCN(CCc3ccccc3)CC2)c1 | – | 0.00604 | Ki [3]: 0.274 µM
